Experimental data: PubChem BioAssay AID1918998 (Molecular Pharmacology Branch, DTP, NCI, 2023)

Test system: 521955-158-R2-J5-PDC complex spheroid growth
Assay: Anticancer human tumor 521955-158-R2-J5-PDC patient-derived pancreatic carcinoma cell line growth inhibition [AhR]
Conditions: for viability, T/C: stronger effect = lower value
Summary of the method: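 Spheroids combined tumor cells with HUVEC endothelial cells and human MSCs as stroma. AhR antagonists were paired with standard or investigational drugs, each dosed in half-log steps down from near clinical Cmax, or from 10 microM where Cmax was unknown.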

[1] = curve of first compound, second compound 0.1 µM
[2] = curve of first compound, second compound 0.316 µM
[3] = curve of first compound, second compound 1 µM
[4] = curve of first compound, second compound 3.16 µM
[5] = curve of first compound, second compound 10 µM
[6] = second compound 0.1 µM, first compound 0.0316 µM
[7] = second compound 0.1 µM, first compound 0.1 µM
[8] = second compound 0.1 µM, first compound 0.316 µM
[9] = second compound 0.1 µM, first compound 1 µM
[10] = second compound 0.1 µM, first compound 3.16 µM
[11] = second compound 0.1 µM, first compound 10 µM
[12] = second compound 0.316 µM, first compound 0.0316 µM
[13] = second compound 0.316 µM, first compound 0.1 µM
[14] = second compound 0.316 µM, first compound 0.316 µM
[15] = second compound 0.316 µM, first compound 1 µM
[16] = second compound 0.316 µM, first compound 3.16 µM
[17] = second compound 0.316 µM, first compound 10 µM
[18] = second compound 1 µM, first compound 0.0316 µM
[19] = second compound 1 µM, first compound 0.1 µM
[20] = second compound 1 µM, first compound 0.316 µM
[21] = second compound 1 µM, first compound 1 µM
[22] = second compound 1 µM, first compound 3.16 µM
[23] = second compound 1 µM, first compound 10 µM
[24] = second compound 3.16 µM, first compound 0.0316 µM
[25] = second compound 3.16 µM, first compound 0.1 µM
[26] = second compound 3.16 µM, first compound 0.316 µM
[27] = second compound 3.16 µM, first compound 1 µM
[28] = second compound 3.16 µM, first compound 3.16 µM
[29] = second compound 3.16 µM, first compound 10 µM
[30] = second compound 10 µM, first compound 0.0316 µM
[31] = second compound 10 µM, first compound 0.1 µM
[32] = second compound 10 µM, first compound 0.316 µM
[33] = second compound 10 µM, first compound 1 µM
[34] = second compound 10 µM, first compound 3.16 µM
[35] = second compound 10 µM, first compound 10 µM
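Throughout, for viability, T/C: spheroids mix tumor cells with HUVEC endothelium and human MSC stroma; luminescence taken as viability surrogate after a week of drug exposure.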

With `Nc1ccccc1NC(=O)c1ccc(CNC(=O)OCc2cccnc2)cc1` + Cc1cncc(-c2nc(NCCc3c[nH]c4ccccc34)c3ncn(C(C)C)c3n2)c1 the IC50 [1] was 5.51 µM, the IC50 [2] was 6.11 µM and the IC50 [3] was 5.74 µM. The IC50 [4] was 5.35 µM, the IC50 [5] was 1.02 µM and the viability, T/C [6] was 108%. It also gave a viability, T/C [7] of 106%, a viability, T/C [8] of 125% and a viability, T/C [9] of 94.7%. It also gave a viability, T/C [10] of 68.4%, a viability, T/C [11] of 31.5% and a viability, T/C [12] of 117%. For the same compound, the viability, T/C [13] was 134%, the viability, T/C [14] was 126% and the viability, T/C [15] was 103%. It also gave a viability, T/C [16] of 77.7%, a viability, T/C [17] of 30.4% and a viability, T/C [18] of 133%. The viability, T/C [19] was 139%, the viability, T/C [20] was 155% and the viability, T/C [21] was 108%. It also gave a viability, T/C [22] of 73.4%, a viability, T/C [23] of 30.5% and a viability, T/C [24] of 138%. The viability, T/C [25] was 143%, the viability, T/C [26] was 135% and the viability, T/C [27] was 110%. For the same compound, the viability, T/C [28] was 69.9%, the viability, T/C [29] was 27.2% and the viability, T/C [30] was 135%. It also gave a viability, T/C [31] of 125%, a viability, T/C [32] of 101% and a viability, T/C [33] of 48.8%. It also gave a viability, T/C [34] of 17.7% and a viability, T/C [35] of 2.9%.

For `COc1ccc([C@@H](O)c2cc(-c3ncnc4cc(N5CCOCC5)ccc34)c(F)cc2Cl)nn1` + Cc1ccccc1N=Nc1ccc(NC(=O)c2ccnn2C)c(C)c1, the IC50 [1] was greater than 10 µM, the IC50 [2] was greater than 10 µM and the IC50 [3] was greater than 10 µM. The IC50 [4] was greater than 10 µM, the IC50 [5] was greater than 10 µM and the viability, T/C [6] was 116%. It also gave a viability, T/C [7] of 98.5%, a viability, T/C [8] of 75.9% and a viability, T/C [9] of 78.1%. The viability, T/C [10] was 67.1%, the viability, T/C [11] was 48.3% and the viability, T/C [12] was 98.8%. For the same compound, the viability, T/C [13] was 96.3%, the viability, T/C [14] was 93.5% and the viability, T/C [15] was 89.9%. The viability, T/C [16] was 72.8%, the viability, T/C [17] was 56.6% and the viability, T/C [18] was 109%. For the same compound, the viability, T/C [19] was 133%, the viability, T/C [20] was 108% and the viability, T/C [21] was 97.2%. It also gave a viability, T/C [22] of 84.4%, a viability, T/C [23] of 59% and a viability, T/C [24] of 139%. For the same compound, the viability, T/C [25] was 117%, the viability, T/C [26] was 128% and the viability, T/C [27] was 101%. It also gave a viability, T/C [28] of 91.3%, a viability, T/C [29] of 54.3% and a viability, T/C [30] of 142%. The viability, T/C [31] was 136%, the viability, T/C [32] was 142% and the viability, T/C [33] was 105%. For the same compound, the viability, T/C [34] was 88.9% and the viability, T/C [35] was 49.9%.

For `Cc1ccccc1N=Nc1ccc(NC(=O)c2ccnn2C)c(C)c1`, the IC50 (compound alone, run of 06/14/2022) was greater than 10 µM.

With `CCN(c1cc(-c2ccc(CN3CCOCC3)cc2)cc(C(=O)NCc2c(C)cc(C)[nH]c2=O)c1C)C1CCOCC1` + Cc1ccccc1N=Nc1ccc(NC(=O)c2ccnn2C)c(C)c1 the IC50 [1] was greater than 3 µM, the IC50 [2] was greater than 3 µM and the IC50 [3] was greater than 3 µM. For the same compound, the IC50 [4] was greater than 3 µM, the IC50 [5] was greater than 3 µM and the viability, T/C (second compound 0.1 µM, first compound 0.00949 µM) was 123%. For the same compound, the viability, T/C (second compound 0.1 µM, first compound 0.03 µM) was 110%, the viability, T/C (second compound 0.1 µM, first compound 0.0949 µM) was 103% and the viability, T/C (second compound 0.1 µM, first compound 0.3 µM) was 89.1%. It also gave a viability, T/C (second compound 0.1 µM, first compound 0.949 µM) of 74.4%, a viability, T/C (second compound 0.1 µM, first compound 3 µM) of 79.9% and a viability, T/C (second compound 0.316 µM, first compound 0.00949 µM) of 111%. It also gave a viability, T/C (second compound 0.316 µM, first compound 0.03 µM) of 106%, a viability, T/C (second compound 0.316 µM, first compound 0.0949 µM) of 110% and a viability, T/C (second compound 0.316 µM, first compound 0.3 µM) of 83.1%. The viability, T/C (second compound 0.316 µM, first compound 0.949 µM) was 76.6%, the viability, T/C (second compound 0.316 µM, first compound 3 µM) was 84.3% and the viability, T/C (second compound 1 µM, first compound 0.00949 µM) was 96.6%. For the same compound, the viability, T/C (second compound 1 µM, first compound 0.03 µM) was 113%, the viability, T/C (second compound 1 µM, first compound 0.0949 µM) was 97.2% and the viability, T/C (second compound 1 µM, first compound 0.3 µM) was 83.6%. For the same compound, the viability, T/C (second compound 1 µM, first compound 0.949 µM) was 95.7%, the viability, T/C (second compound 1 µM, first compound 3 µM) was 87.6% and the viability, T/C (second compound 3.16 µM, first compound 0.00949 µM) was 126%. The viability, T/C (second compound 3.16 µM, first compound 0.03 µM) was 128%, the viability, T/C (second compound 3.16 µM, first compound 0.0949 µM) was 128% and the viability, T/C (second compound 3.16 µM, first compound 0.3 µM) was 125%. It also gave a viability, T/C (second compound 3.16 µM, first compound 0.949 µM) of 102%, a viability, T/C (second compound 3.16 µM, first compound 3 µM) of 112% and a viability, T/C (second compound 10 µM, first compound 0.00949 µM) of 164%. For the same compound, the viability, T/C (second compound 10 µM, first compound 0.03 µM) was 153%, the viability, T/C (second compound 10 µM, first compound 0.0949 µM) was 166% and the viability, T/C (second compound 10 µM, first compound 0.3 µM) was 150%. It also gave a viability, T/C (second compound 10 µM, first compound 0.949 µM) of 126% and a viability, T/C (second compound 10 µM, first compound 3 µM) of 122%.

`CC1COCCN1c1cc(-c2ccnn2C)c2ccnc(-c3ccn[nH]3)c2n1` (stereo unspecified) + Cc1ccccc1N=Nc1ccc(NC(=O)c2ccnn2C)c(C)c1 was tested, and the IC50 [1] was 0.149 µM, the IC50 [2] was 0.154 µM and the IC50 [3] was 0.152 µM. For the same compound, the IC50 [4] was 0.143 µM, the IC50 [5] was 0.101 µM and the viability, T/C (second compound 0.1 µM, first compound 0.00316 µM) was 128%. The viability, T/C (second compound 0.1 µM, first compound 0.01 µM) was 116%, the viability, T/C [6] was 122% and the viability, T/C [7] was 66.6%. It also gave a viability, T/C [8] of 19.4%, a viability, T/C [9] of 17.9% and a viability, T/C (second compound 0.316 µM, first compound 0.00316 µM) of 122%. The viability, T/C (second compound 0.316 µM, first compound 0.01 µM) was 116%, the viability, T/C [12] was 127% and the viability, T/C [13] was 70%. For the same compound, the viability, T/C [14] was 17.9%, the viability, T/C [15] was 15.2% and the viability, T/C (second compound 1 µM, first compound 0.00316 µM) was 123%. It also gave a viability, T/C (second compound 1 µM, first compound 0.01 µM) of 138%, a viability, T/C [18] of 109% and a viability, T/C [19] of 71%. For the same compound, the viability, T/C [20] was 14.2%, the viability, T/C [21] was 13.8% and the viability, T/C (second compound 3.16 µM, first compound 0.00316 µM) was 144%. The viability, T/C (second compound 3.16 µM, first compound 0.01 µM) was 131%, the viability, T/C [24] was 145% and the viability, T/C [25] was 66.4%. For the same compound, the viability, T/C [26] was 13.4%, the viability, T/C [27] was 14.2% and the viability, T/C (second compound 10 µM, first compound 0.00316 µM) was 134%. It also gave a viability, T/C (second compound 10 µM, first compound 0.01 µM) of 154%, a viability, T/C [30] of 108% and a viability, T/C [31] of 54.5%. For the same compound, the viability, T/C [32] was 12.4% and the viability, T/C [33] was 15.4%.

Work on `COc1cc(Nc2ncc3c(n2)-c2ccc(Cl)cc2C(c2c(F)cccc2OC)=NC3)ccc1C(=O)O` + CC(CO)NC(=O)c1cc(-c2ccc(Cl)cc2)nn(-c2cnn(C)c2)c1=O yielded an IC50 [1] greater than 10 µM, an IC50 [2] greater than 10 µM and an IC50 [3] greater than 10 µM. For the same compound, the IC50 [4] was 2.66 µM, the IC50 [5] was 1.18 µM and the viability, T/C [6] was 99.5%. For the same compound, the viability, T/C [7] was 78.4%, the viability, T/C [8] was 68.2% and the viability, T/C [9] was 61.9%. It also gave a viability, T/C [10] of 65.3%, a viability, T/C [11] of 50% and a viability, T/C [12] of 91.3%. For the same compound, the viability, T/C [13] was 74.6%, the viability, T/C [14] was 71.9% and the viability, T/C [15] was 76.5%. The viability, T/C [16] was 55%, the viability, T/C [17] was 50.6% and the viability, T/C [18] was 59.5%. The viability, T/C [19] was 64.9%, the viability, T/C [20] was 69.2% and the viability, T/C [21] was 63.6%. For the same compound, the viability, T/C [22] was 48.6%, the viability, T/C [23] was 72.8% and the viability, T/C [24] was 84.3%. For the same compound, the viability, T/C [25] was 69.5%, the viability, T/C [26] was 48% and the viability, T/C [27] was 65.4%. It also gave a viability, T/C [28] of 47.7%, a viability, T/C [29] of 44.9% and a viability, T/C [30] of 62.2%. For the same compound, the viability, T/C [31] was 49.3%, the viability, T/C [32] was 62.4% and the viability, T/C [33] was 51.8%. For the same compound, the viability, T/C [34] was 37.6% and the viability, T/C [35] was 35%.
